From patent US8207330B2, “Two-photon absorption material and application thereof” (Ricoh Company, Ltd., priority 2008, dated 2012)

Assay: Two-photon absorption cross-sectional area, Z scan method, Examples B
Assay type: physicochemical
Details: tetrahydrofuran solution, femtosecond laser, 780 nm to 960 nm (710 nm to 990 nm)
Protocol: Each of Compounds (1), (2), (57), (58), (59), (60), (3), (4), (61), (62), (25), (26), (63), (64), (65), (66), (45), (67), (68), (69), (70), (71), (72), (5), (9), (13), (19), (27), (31), (32), (34), (36), (39), (44), (53) and (55) was dissolved in tetrahydrofuran, and the resultant tetrahydrofuran solution was measured for its two-photon absorption cross-sectional area according to the below-described evaluation method therefor.
This measurement was performed under the following conditions:
Sample concentration: 10^−2 mol to 10^−5 mol (this range covering optimal concentrations of the samples (at which measurements are easily performed));
Light path length of cell: 10 mm (corresponding to the inner diameter of cuvette);
Light: variable femtosecond laser having a wavelength of 710 nm to 990 nm; and
Light power: 10 mW to 800 mW.
The following compound (73) was dissolved in tetrahydrofuran, and the resultant solution was measured for its two-photon absorption cross-sectional area according to the below-described evaluation method therefor.
The following compound (74) was dissolved in tetrahydrofuran, and the resultant solution was measured for its two-photon absorption cross-sectional area according to the below-described evaluation method therefor.
[drawing 68] [Method for Measuring Two-Photon Absorption Cross-Sectional Area]
FIG. 8 schematically illustrates a system of the method.
Measuring light source: femtosecond titanium sapphire laser
Repetition frequency: 80 MHz
Measuring method: Z scan method
Inner diameter of cuvette: 10 mm
Light power for measurement: about 500 mW
Collection diameter: 40 μm to 50 μm
A quartz cell filled with each sample solution was placed in a light path through which a focused laser beam was passed. Then, the cell was moved along the light path for Z-scan measurement.
The sample solution was measured for its transmittance, and the thus-obtained value and the following theoretical equation (I) were used to determine a nonlinear absorption coefficient of the sample. T=[ln(1+I0L0β)]/I0L0β (I)
where T denotes a transmittance (%), I0 denotes an excited light density [GW/cm^2], L0 denotes a sample cell length [cm], and β denotes a nonlinear absorption coefficient [cm/GW].
The thus-determined nonlinear absorption coefficient and the following equation (ii) were used to calculate a two-photon absorption cross-sectional area σ. Note that the unit of σ is GM (1 GM=1×10^−50 cm^4·s·photon^−1). σ=1,000×hvβ/[…] (ii)
where h denotes the Planck's constant [J·s], v denotes a frequency of an incident laser beam [s^−1], NA denotes the Avogadoro's number, and C denotes a concentration of a solution [mol/L].

| Two-photon absorption cross-sectional area | SMILES |
| --- | --- |
| 980 GM | CC1=C(C)c2nc1c(-c1ccc(C#N)cc1)c1[nH]c(c(C)c1C)c(-c1ccc(/C=C/c3ccc(N(c4ccccc4)c4ccc(C)cc4)cc3)cc1)c1nc(c(-c3ccc(C#N)cc3)c3[nH]c(c(C)c3C)c2-c2ccc(/C=C/c3ccc(N(c4ccccc4)c4ccc(C)cc4)cc3)cc2)C(C)=C1C [(5)] |
| 1,030 GM | CN(C)c1ccc(/C=C/C2=c3ccc4[n]3[Zn][n]3c(ccc3C(c3ccccn3)=C3C=CC2=N3)C(c2ccc(/C=C/c3ccc(N(c5ccccc5)c5ccccc5)cc3)cc2)=C2C=CC(=N2)C=4c2ccccn2)cc1 [(13)] |
| 860 GM | CCCCCCc1ccc(N(c2ccc(-c3c4nc(c(-c5c(C)cc(C)cc5C)c5[nH]c(cc6nc(c(-c7c(C)cc(C)cc7C)c7[nH]c3c(CC)c7C)C(C)=C6CC)c(CC)c5C)C(C)=C4CC)cc2)c2ccc(-c3c4nc(c(-c5c(C)cc(C)cc5C)c5[nH]c(cc6nc(c(-c7c(C)cc(C)cc7C)c7[nH]c3c(CC)c7C)C(C)=C6CC)c(CC)c5C)C(C)=C4CC)cc2)cc1 [(25)] |
| 1,120 GM | CCCCCCc1ccc(N(c2ccc(C3=C4N=C(C(C)=C4CC)C(c4c(C)cc(C)cc4C)=c4c(C)c(CC)c5[n]4[Zn][n]4c(c(C)c(CC)c43)C(c3c(C)cc(C)cc3C)=C3N=C(C=5)C(CC)=C3C)cc2)c2ccc(C3=c4c(CC)c(C)c5[n]4[Zn][n]4c(c(CC)c(C)c4C(c4c(C)cc(C)cc4C)=C4N=C3C(CC)=C4C)C=C3N=C(C(C)=C3CC)C=5c3c(C)cc(C)cc3C)cc2)cc1 [(26)] |
| 810 GM | CCC1=C(CC)c2nc1c(Br)c1[nH]c(c(CC)c1CC)c(-c1ccc([N+](=O)[O-])cc1)c1nc(c(-c3ccc4c(c3)C(C)(C)c3cc(-c5c6nc(c(-c7ccc([N+](=O)[O-])cc7)c7[nH]c(c(Br)c8nc(c(-c9ccc([N+](=O)[O-])cc9)c9[nH]c5c(CC)c9CC)C(CC)=C8CC)c(CC)c7CC)C(CC)=C6CC)ccc3-4)c3[nH]c(c(CC)c3CC)c2-c2ccc([N+](=O)[O-])cc2)C(CC)=C1CC [(27)] |
| 890 GM | CCCCCCc1ccc(N(c2ccc(C3=C4C=CC(=N4)C(c4ccccc4C)=c4ccc5[n]4[Pd][n]4c3ccc4C(c3ccccc3C)=C3C=CC(=N3)C=5c3ccc(/C=C/c4ccc(N(c5ccccc5)c5ccccc5)cc4)cc3)cc2)c2ccc(C3=c4ccc5[n]4[Pd][n]4c(ccc4C(c4ccccc4C)=C4C=CC3=N4)C=C3C=CC(=N3)C=5c3ccccc3C)cc2)cc1 [(31)] |
| 900 GM | CCC1=C(C)C2=NC1=Cc1c(CC)c(C)c3[n]1[Ni][n]1c(c(C)c(CC)c1=C(c1ccc(N(c4ccccc4)c4ccc(C5=C6N=C(C(C)=C6CC)C(c6ccncc6)=c6c(C)c(CC)c7[n]6[Ni][n]6c(c(C)c(CC)c65)C(c5ccncc5)=C5N=C(C(CC)=C5C)C=7/C=C/c5ccc(N(c6ccccc6)c6ccccc6)cc5)cc4)cc1)C1=NC(=C3c3ccncc3)C(C)=C1CC)=C2c1ccncc1 [(32)] |
| 1,010 GM | CCCCC(CC)COc1ccc(N(c2ccc(C3=C4N=C(C(C)=C4CC)C(c4ccccc4C(=O)OC)=c4c(C)c(CC)c5[n]4[Zn][n]4c(c(C)c(CC)c43)C(c3ccccc3C(=O)OC)=C3N=C(C=5)C(CC)=C3C)cc2)c2ccc(C3=c4c(CC)c(C)c5[n]4[Zn][n]4c(c(CC)c(C)c4C(c4ccccc4C(=O)OC)=C4N=C3C(CC)=C4C)C=C3N=C(C(C)=C3CC)C=5c3ccccc3C(=O)OC)cc2)cc1 (stereo not shown) [(34)] |
| 890 GM | CCC1=C(C)c2nc1cc1[nH]c(c(C)c1CC)c(-c1ccccc1C(F)(F)F)c1nc(c(-c3ccc4c(c3)C(C)(C)c3cc(-c5c6nc(c(-c7ccccc7C(F)(F)F)c7[nH]c(cc8nc(c(-c9ccccc9C(F)(F)F)c9[nH]c5c(CC)c9C)C(C)=C8CC)c(CC)c7C)C(C)=C6CC)ccc3-4)c3[nH]c(c(C)c3CC)c2-c2ccccc2C(F)(F)F)C(CC)=C1C [(39)] |
| 1,000 GM | CC1=C(C)C2=C(I)c3c(C)c(C)c4[n]3[Zn][n]3c(cc(C)c3=C(c3ccccc3C(F)(F)F)C1=N2)=C(c1ccc2c(c1)C(C)(C)c1cc(C3=C5N=C(C(C)=C5C)C(c5ccccc5C(F)(F)F)=c5c(C)c(C)c6[n]5[Zn][n]5c3c(C)c(C)c5C(c3ccccc3C(F)(F)F)=C3N=C(C(C)=C3C)C=6I)ccc1-2)C1=NC(=C4c2ccccc2C(F)(F)F)C(C)=C1C [(44)] |
| 1,200 GM | CCCCCCC1(CCCCCC)c2cc(C3=C4C=CC(=N4)C(c4cc(OC)c(OC)c(OC)c4)=c4ccc5[n]4[Zn][n]4c(ccc43)C(c3cc(OC)c(OC)c(OC)c3)=C3C=CC(=N3)C=5/C=C/c3ccc(N(c4ccccc4)c4ccccc4)cc3)ccc2-c2ccc(C3=c4ccc5[n]4[Zn][n]4c(ccc4C(c4cc(OC)c(OC)c(OC)c4)=C4C=CC3=N4)C=C3C=CC(=N3)C=5c3cc(OC)c(OC)c(OC)c3)cc21 [(45)] |
| 840 GM | CCC1=C(C)c2nc1c(Br)c1[nH]c(c(C)c1CC)c(Br)c1nc(c(-c3ccc(N(c4ccccc4)c4ccc(-c5c6nc(c(-c7ccccc7C(F)(F)F)c7[nH]c(c(Br)c8nc(c(Br)c9[nH]c5c(CC)c9C)C(C)=C8CC)c(CC)c7C)C(C)=C6CC)cc4)cc3)c3[nH]c(c(C)c3CC)c2-c2ccccc2C(F)(F)F)C(CC)=C1C [(53)] |
| 850 GM | CCC1=C(C)c2cc3[nH]c(c(CC)c3C)c(-c3ccc(N(c4ccccc4)c4ccc(-c5c6nc(cc7[nH]c(cc8nc(c(-c9ccc(-c%10ccccn%10)nc9)c9[nH]c5c(CC)c9C)C(C)=C8CC)c(CC)c7C)C(C)=C6CC)cc4)cc3)c3nc(c(-c4ccc(-c5ccccn5)nc4)c4[nH]c(cc1n2)c(CC)c4C)C(C)=C3CC [(55)] |
| 840 GM | CCC1=C(C)C2=C(c3cc(OC)c(OC)c(OC)c3)c3c(C)c(CC)c4[n]3[Cu][n]3c(c(C)c(CC)c3=C(c3ccc(/C=C/c5ccc(N(c6ccc(C)cc6)c6ccc(C)cc6)cc5)cc3)C1=N2)=C(c1cc(OC)c(OC)c(OC)c1)C1=NC(=C4c2ccc(/C=C/c3ccc(N(c4ccc(C)cc4)c4ccc(C)cc4)cc3)cc2)C(CC)=C1C [(62)] |
| 900 GM | CCCCCCc1ccc(N(c2ccc(C3=C4N=C(C(C)=C4CC)C(c4c(C)cc(C)cc4C)=c4c(C)c(CC)c5[n]4[Ni][n]4c(c(C)c(CC)c43)C(c3c(C)cc(C)cc3C)=C3N=C(C=5)C(CC)=C3C)cc2)c2ccc(C3=c4c(CC)c(C)c5[n]4[Ni][n]4c(c(CC)c(C)c4C(c4c(C)cc(C)cc4C)=C4N=C3C(CC)=C4C)C=C3N=C(C(C)=C3CC)C=5c3c(C)cc(C)cc3C)cc2)cc1 [(63)] |
| 890 GM | CCCCCCc1ccc(N(c2ccc(C3=C4N=C(C(C)=C4CC)C(c4c(C)cc(C)cc4C)=c4c(C)c(CC)c5[n]4[Pd][n]4c(c(C)c(CC)c43)C(c3c(C)cc(C)cc3C)=C3N=C(C=5)C(CC)=C3C)cc2)c2ccc(C3=c4c(CC)c(C)c5[n]4[Pd][n]4c(c(CC)c(C)c4C(c4c(C)cc(C)cc4C)=C4N=C3C(CC)=C4C)C=C3N=C(C(C)=C3CC)C=5c3c(C)cc(C)cc3C)cc2)cc1 [(64)] |
| 810 GM | CCCCCCc1ccc(N(c2ccc(C3=C4N=C(C(C)=C4CC)C(c4c(C)cc(C)cc4C)=c4c(C)c(CC)c5[n]4[Co][n]4c(c(C)c(CC)c43)C(c3c(C)cc(C)cc3C)=C3N=C(C=5)C(CC)=C3C)cc2)c2ccc(C3=c4c(CC)c(C)c5[n]4[Co][n]4c(c(CC)c(C)c4C(c4c(C)cc(C)cc4C)=C4N=C3C(CC)=C4C)C=C3N=C(C(C)=C3CC)C=5c3c(C)cc(C)cc3C)cc2)cc1 [(65)] |
| 820 GM | CCCCCCc1ccc(N(c2ccc(C3=C4N=C(C(C)=C4CC)C(c4c(C)cc(C)cc4C)=c4c(C)c(CC)c5[n]4[Cu][n]4c(c(C)c(CC)c43)C(c3c(C)cc(C)cc3C)=C3N=C(C=5)C(CC)=C3C)cc2)c2ccc(C3=c4c(CC)c(C)c5[n]4[Cu][n]4c(c(CC)c(C)c4C(c4c(C)cc(C)cc4C)=C4N=C3C(CC)=C4C)C=C3N=C(C(C)=C3CC)C=5c3c(C)cc(C)cc3C)cc2)cc1 [(66)] |

| SMILES | Two-photon absorption cross-sectional area |
| --- | --- |
| CCCCCCc1ccc(N(c2ccc(C3=C4C(C(=O)OC)=CC5=[N+]4[Co@]46[n]7c(cc(C(=O)OC)c73)C(c3ccc([N+](=O)[O-])cc3)=C3C=C(C(=O)OC)C(=[N+]34)C=c3c(C(=O)OC)cc([n]36)=C5c3ccc([N+](=O)[O-])cc3)cc2)c2ccc(C3=c4c(C(=O)OC)cc5[n]4[Co@]46[n]7c(cc(C(=O)OC)c7C=C7C(C(=O)OC)=CC(=[N+]74)C=5c4ccc([N+](=O)[O-])cc4)C(c4ccc([N+](=O)[O-])cc4)=C4C=C(C(=O)OC)C3=[N+]46)cc2)cc1 [(36)] | 860 GM |
